Laboratory results published in BindingDB's records for doi:10.1016/j.ejmech.2019.111574 (Chungnam National University, 2019).

Experiment: Inhibition of IL-5 receptor in mouse pro-B Y16 cells assessed as decrease in mIL-5 dependent cell proliferation after 48 hrs in presence of 3 units/ml mIL-5 by WST-1 assay

SMILES	IC50
OCCCNCc1nc2c(OCC3CCCCC3)cccc2[nH]1	28.5 µM
CCN(CCO)Cc1nc2c(OCC3CCCCC3)cccc2[nH]1	> 30 µM
c1ccc(CNCc2nc3c(OCC4CCCCC4)cccc3[nH]2)cc1	> 30 µM
OCCNCc1nc2c(OCC3CCCCC3)cccc2[nH]1	20 µM
CCC(CO)NCc1nc2c(OCC3CCCCC3)cccc2[nH]1 (configuration not stated)	3.5 µM
CCCC(CO)NCc1nc2c(OCC3CCCCC3)cccc2[nH]1 (configuration not stated)	7.5 µM
CC(C)(CO)NCc1nc2c(OCC3CCCCC3)cccc2[nH]1	27.5 µM
OCC(Cc1ccccc1)NCc1nc2c(OCC3CCCCC3)cccc2[nH]1 (configuration not stated)	12 µM
CCCN(CCO)Cc1nc2c(OCC3CCCCC3)cccc2[nH]1	20 µM
CC(C)N(CCO)Cc1nc2c(OCC3CCCCC3)cccc2[nH]1	> 30 µM
OCCN(Cc1nc2c(OCC3CCCCC3)cccc2[nH]1)C1CCCCC1	> 30 µM
OCCN(Cc1nc2c(OCC3CCCCC3)cccc2[nH]1)CC1CCCCC1	21 µM
OCCN(Cc1ccc(Cl)cc1)Cc1nc2c(OCC3CCCCC3)cccc2[nH]1	13 µM
COc1ccc(CN(CCO)Cc2nc3c(OCC4CCCCC4)cccc3[nH]2)cc1	19 µM
c1ccc(NCc2nc3c(OCC4CCCCC4)cccc3[nH]2)cc1	> 30 µM
OCCCCNCc1nc2c(OCC3CCCCC3)cccc2[nH]1	30 µM
OCC(CC1CCCCC1)NCc1nc2c(OCC3CCCCC3)cccc2[nH]1 (configuration not stated)	5 µM
OCCN(Cc1ccccc1)Cc1nc2c(OCC3CCCCC3)cccc2[nH]1	25 µM
COc1ccc(CNCc2nc3c(OCC4CCCCC4)cccc3[nH]2)cc1	> 30 µM
OCC(NCc1nc2c(OCC3CCCCC3)cccc2[nH]1)c1ccccc1 (configuration not stated)	20 µM
OCCCCCNCc1nc2c(OCC3CCCCC3)cccc2[nH]1	> 30 µM
OCCC(NCc1nc2c(OCC3CCCCC3)cccc2[nH]1)c1ccccc1 (configuration not stated)	22 µM
CN(CCO)Cc1nc2c(OCC3CCCCC3)cccc2[nH]1	> 30 µM
OCCN(Cc1ccncc1)Cc1nc2c(OCC3CCCCC3)cccc2[nH]1	> 30 µM
COc1ccc(NCc2nc3c(OCC4CCCCC4)cccc3[nH]2)cc1	> 30 µM
CCCC1O[C@@H]2C[C@H]3[C@@H]4CCC5=CC(=O)C=C[C@]5(C)[C@H]4[C@@H](O)C[C@]3(C)[C@]2(C(=O)CO)O1 (some centres not stated) [BUDESONIDE]	26.2 µM
O=c1c(-c2ccc(O[C@@H]3O[C@H](CO)[C@@H](O)[C@H](O)[C@H]3O)cc2)coc2cc(O)cc(O)c12 [Sophoricoside]	10.6 µM
